From US9458414B2, “Cleaning, surfactant, and personal care compositions” (SEGETIS, INC., priority 2012, dated 2016)

Legend:
Format in all cases: physicochemical
[1] = Coupling of water and octanoic acid by hydrotropes (amount producing a single phase)
Procedure: Hydrotropes were added to a two-component mixture of octanoic acid and deionized (DI) water to find the amount that produced a single phase from the two separate phases of water and octanoic acid.
The percent hydrotrope required to compatibilize phases (and the resulting percent octanoic acid) were calculated and the results are shown in Table 4 as well as FIG. 1.

[2] = Coupling of water and soy methyl ester by hydrotropes
Procedure: Hydrotropes were added to a two-component mixture of soy methyl ester and DI water to find the amount that produced a single phase from the two separate phases of water and soy methyl ester. The percent hydrotrope required to compatibilize the phases was calculated.

[3] = Coupling of water and castor oil by hydrotropes
[4] = ratio of water:octanoic acid 10:90
[5] = ratio of water:octanoic acid 30:70
[6] = ratio of water:octanoic acid 50:50
[7] = ratio of water:octanoic acid 70:30
[8] = ratio of water:octanoic acid 90:10
[9] = water:octanoic acid 10:90 (DI water 0.5 g, octanoic acid 4.5 g)
[10] = water:octanoic acid 30:70 (DI water 1.5 g, octanoic acid 3.5 g)
[11] = water:octanoic acid 50:50 (DI water 5.0 g, octanoic acid 5.0 g)
[12] = water:octanoic acid 70:30 (DI water 3.5 g, octanoic acid 1.5 g)
[13] = water:octanoic acid 90:10 (DI water 4.5 g, octanoic acid 0.5 g)
[14] = ratio of water:soy methyl esters 10:90
[15] = ratio of water:soy methyl esters 30:70
[16] = ratio of water:soy methyl esters 50:50
[17] = ratio of water:soy methyl esters 70:30
[18] = ratio of water:soy methyl esters 90:10
[19] = ratio of water to castor oil 10:90
[20] = ratio of water to castor oil 30:70
[21] = ratio of water to castor oil 50:50
[22] = ratio of water to castor oil 70:30
[23] = ratio of water to castor oil 90:10
[24] = all ratios 10:90 to 90:10, measured levels up to >95%

Row | Molecule | Wt % Hydrotrope required to compatibilize phases [1, 4] [%] | Wt % Octanoic Acid (resulting, at compatibilization) [1, 4] [%] | Wt % Hydrotrope required to compatibilize phases [1, 5] [%] | Wt % Octanoic Acid (resulting, at compatibilization) [1, 5] [%] | Wt % Hydrotrope required to compatibilize phases [1, 6] [%] | Wt % Octanoic Acid (resulting, at compatibilization) [1, 6] [%] | Wt % Hydrotrope required to compatibilize phases [1, 7] [%] | Wt % Octanoic Acid (resulting, at compatibilization) [1, 7] [%] | Wt % Hydrotrope required to compatibilize phases [1, 8] [%] | Wt % Octanoic Acid (resulting, at compatibilization) [1, 8] [%] | Amount of hydrotrope that produced a single phase [1, 9] [grams] | Amount of hydrotrope that produced a single phase [1, 10] [grams] | Amount of hydrotrope that produced a single phase [1, 11] [grams] | Amount of hydrotrope that produced a single phase [1, 12] [grams] | Amount of hydrotrope that produced a single phase [1, 13] [grams] | Wt % Hydrotrope required to compatibilize the phases [2, 14] [%] | Wt % Soy Methyl Esters (at compatibilization) [2, 14] [%] | Wt % Hydrotrope required to compatibilize the phases [2, 15] [%] | Wt % Soy Methyl Esters (at compatibilization) [2, 15] [%] | Wt % Hydrotrope required to compatibilize the phases [2, 16] [%] | further results
1 | COCC(C)O (centres unmarked) [PM, propylene glycol methyl ether] | 18 | 74 | 38 | 43 | 42 | 29 | 42 | 17 | 41 | 6 | 1.09 | 3.12 | 3.62 | 3.68 | 3.44 | 51 | 44 | 67 | 25 | 77 | Wt % Soy Methyl Esters (at compatibilization) [2, 16]: 11%; Wt % Hydrotrope required to compatibilize the phases [2, 17]: 81%; Wt % Soy Methyl Esters (at compatibilization) [2, 17]: 5%; Wt % Hydrotrope required to compatibilize the phases [2, 18]: 77%; Wt % Soy Methyl Esters (at compatibilization) [2, 18]: 2%; Wt % Castor oil (at compatibilization) [3, 19]: 36%; Wt % Hydrotrope required to compatibilize phases [3, 19]: 61%; Wt % Castor oil (at compatibilization) [3, 20]: 26%; Wt % Hydrotrope required to compatibilize phases [3, 20]: 65%; Wt % Castor oil (at compatibilization) [3, 21]: 12%; Wt % Hydrotrope required to compatibilize phases [3, 21]: 76%; Wt % Castor oil (at compatibilization) [3, 22]: 5%; Wt % Hydrotrope required to compatibilize phases [3, 22]: 81%; Wt % Castor oil (at compatibilization) [3, 23]: 2%; Wt % Hydrotrope required to compatibilize phases [3, 23]: 83%
2 | CCO [ethanol] | 18 | 74 | 37 | 44 | 39 | 31 | 37 | 19 | 36 | 6 | 1.12 | 2.95 | 3.14 | 2.97 | 2.87 | 54 | 41 | 74 | 18 | 78 | Wt % Soy Methyl Esters (at compatibilization) [2, 16]: 11%; Wt % Hydrotrope required to compatibilize the phases [2, 17]: 80%; Wt % Soy Methyl Esters (at compatibilization) [2, 17]: 6%; Wt % Hydrotrope required to compatibilize the phases [2, 18]: 77%; Wt % Soy Methyl Esters (at compatibilization) [2, 18]: 2%; Wt % Castor oil (at compatibilization) [3, 19]: 40%; Wt % Hydrotrope required to compatibilize phases [3, 19]: 55%; Wt % Castor oil (at compatibilization) [3, 20]: 22%; Wt % Hydrotrope required to compatibilize phases [3, 20]: 69%; Wt % Castor oil (at compatibilization) [3, 21]: 10%; Wt % Hydrotrope required to compatibilize phases [3, 21]: 79%; Wt % Castor oil (at compatibilization) [3, 22]: 5%; Wt % Hydrotrope required to compatibilize phases [3, 22]: 82%; Wt % Castor oil (at compatibilization) [3, 23]: 2%; Wt % Hydrotrope required to compatibilize phases [3, 23]: 84%
3 | COC(C)COC(C)CO (centres unmarked) [DPM, dipropylene glycol methyl ether] | 30 | 63 | 47 | 37 | 51 | 25 | 48 | 16 | 43 | 6 | 2.14 | 4.52 | 10.34 | 4.66 | 3.7 | 48 | 47 | 63 | 28 | 74 | Wt % Soy Methyl Esters (at compatibilization) [2, 16]: 13%; Wt % Hydrotrope required to compatibilize the phases [2, 17]: 78%; Wt % Soy Methyl Esters (at compatibilization) [2, 17]: 5%; Wt % Hydrotrope required to compatibilize the phases [2, 18]: 78%; Wt % Soy Methyl Esters (at compatibilization) [2, 18]: 2%; Wt % Castor oil (at compatibilization) [3, 19]: 40%; Wt % Hydrotrope required to compatibilize phases [3, 19]: 56%; Wt % Castor oil (at compatibilization) [3, 20]: 26%; Wt % Hydrotrope required to compatibilize phases [3, 20]: 65%; Wt % Castor oil (at compatibilization) [3, 21]: 13%; Wt % Hydrotrope required to compatibilize phases [3, 21]: 74%; Wt % Castor oil (at compatibilization) [3, 22]: 5%; Wt % Hydrotrope required to compatibilize phases [3, 22]: 79%; Wt % Castor oil (at compatibilization) [3, 23]: 2%; Wt % Hydrotrope required to compatibilize phases [3, 23]: 81%
4 | Sodium xylene-sulfonate [Sodium xylene-sulfonate (SXS) (40%)] | 13 | 61 | 16 | 43 | 17 | 29 | 17 | 18 | 16 | 6 | 2.32 | 3.23 | 7.4 | 3.55 | 3.33 | – | – | – | – | – | Compatibilization of water and soy methyl esters [2, 24]: *The sodium xylenesulfonate did not compatibilize at any measured level (up to >95%).; Compatibilization of water and castor oil [3, 24]: *The sodium xylenesulfonate did not compatibilize at any measured level (up to >95%).
